Measured values published in article PMC8253220, “Molecular design, synthesis and in vitro biological evaluation of thienopyrimidine–hydroxamic acids as chimeric kinase HDAC inhibitors: a challenging approach to combat cancer” (Journal of Enzyme Inhibition and Medicinal Chemistry, 2021).
Where “and” joins values, the source holds several entries; their conditions need not be identical. Equal values may be shown once.

Tests used:
Test in all cases: NCI one-dose screen
Assay type in all cases: cell-based, human
T-47D = details: Breast T-47D, 10 µM single dose
In short: (§1)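 At 10 μM, a single concentration, compounds were evaluated for antiproliferative effect in the NCI 60-line screen, with growth expressed relative to untreated control cells.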

RPMI-8226 = details: Leukemia RPMI-8226, 10 µM single dose
In short: as §1

MDA-MB-435 = details: Melanoma MDA-MB-435, 10 µM single dose
In short: as §1

K-562 = details: Leukemia K-562, 10 µM single dose
In short: as §1

PC-3 = details: Prostate PC-3, 10 µM single dose
In short: (§2)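 Compounds were tested at a single dose of 10 μM across the full NCI-60 cell line panel. Growth was expressed as percent growth relative to untreated control cells, reported as percent inhibition.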

MDA-MB-468 = details: Breast MDA-MB-468, 10 µM single dose
In short: (§3)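 Growth of treated cells is compared with untreated controls to give percent inhibition. Compounds are applied once at 10 μM across the NCI 60 cancer cell panel.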

UACC-257 = details: Melanoma UACC-257, 10 µM single dose
In short: as §2

DU-145 = details: Prostate DU-145, 10 µM single dose
In short: as §1

OVCAR-8 = details: Ovarian OVCAR-8, 10 µM single dose
In short: as §1

HOP-92 = details: NSCLC HOP-92, 10 µM single dose
In short: as §1

NCI-H460 = details: NSCLC NCI-H460, 10 µM single dose
In short: as §1

SR = details: Leukemia SR, 10 µM single dose
In short: as §1

MCF7 = details: Breast MCF7, 10 µM single dose
In short: as §3

SK-MEL-28 = details: Melanoma SK-MEL-28, 10 µM single dose
In short: as §2

NCI-H322M = details: NSCLC NCI-H322M, 10 µM single dose
In short: as §1

HL-60(TB) = details: Leukemia HL-60(TB), 10 µM single dose
In short: as §1

LOX IMVI = details: Melanoma LOX IMVI, 10 µM single dose
In short: as §1

NCI-H23 = details: NSCLC NCI-H23, 10 µM single dose
In short: as §3

SF-295 = details: CNS SF-295, 10 µM single dose
In short: as §1

HS 578T = details: Breast HS 578T, 10 µM single dose
In short: as §1

HOP-62 = details: NSCLC HOP-62, 10 µM single dose
In short: (§4)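 One concentration (10 μM) applied to each line of the full NCI-60 panel; percent growth compared against untreated cells.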

OVCAR-5 = details: Ovarian OVCAR-5, 10 µM single dose
In short: as §1

NCI-H226 = details: NSCLC NCI-H226, 10 µM single dose
In short: (§5)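 Each cell line received compound at 10 μM as part of the NCI one-dose protocol. Values reflect growth inhibition percent calculated from growth relative to untreated controls.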

SW-620 = details: Colon SW-620, 10 µM single dose
In short: as §2

IGROV1 = details: Ovarian IGROV1, 10 µM single dose
In short: as §1

HCC-2998 = details: Colon HCC-2998, 10 µM single dose
In short: as §1

COLO 205 = details: Colon COLO 205, 10 µM single dose
In short: as §1

MOLT-4 = details: Leukemia MOLT-4, 10 µM single dose
In short: as §3

SF-268 = details: CNS SF-268, 10 µM single dose
In short: as §3

CAKI-1 = details: Renal CAKI-1, 10 µM single dose
In short: as §1

SN12C = details: Renal SN12C, 10 µM single dose
In short: as §1

KM12 = details: Colon KM12, 10 µM single dose
In short: as §3

U251 = details: CNS U251, 10 µM single dose
In short: as §5

SNB-19 = details: CNS SNB-19, 10 µM single dose
In short: as §4

SK-MEL-2 = details: Melanoma SK-MEL-2, 10 µM single dose
In short: as §4

UO-31 = details: Renal UO-31, 10 µM single dose
In short: as §5

BT-549 = details: Breast BT-549, 10 µM single dose
In short: as §1

Row | Structure (SMILES) | Growth Percent (T-47D) | Growth Percent (MDA-MB-435) | Growth Percent (K-562) | Growth Percent (PC-3) | Growth Percent (MDA-MB-468) | Growth Percent (UACC-257) | Growth Percent (DU-145) | Growth Percent (OVCAR-8) | Growth Percent (HOP-92) | Growth Percent (NCI-H460) | Growth Percent (SR) | Growth Percent (MCF7) | Growth Percent (SK-MEL-28) | Growth Percent (NCI-H322M) | Growth Percent (HL-60(TB)) | Growth Percent (LOX IMVI) | Growth Percent (NCI-H23) | Growth Percent (SF-295) | Growth Percent (HS 578T) | Growth Percent (HOP-62) | also measured
1 | Cc1c(C(=O)NO)sc2ncnc(Nc3ccc(NC(=O)Nc4ccccc4)cc3)c12 [Compound 7a, 1–(4-(6-(hydroxycarbamoyl)-5-methylthieno[2,3-d]pyrimidin-4-ylamino)phenyl)-3-phenylurea] | 95.7% and 95.72% | 102.0% and 102.09% | 105.9% and 105.92% | 97.3% and 97.34% | 111.9% and 111.92% | 115.5% and 115.56% | 100.2% and 100.26% | 106.3% and 106.33% | 117.3% and 117.36% | 100.3% and 100.39% | 99.1% and 99.16% | 90.7% and 90.78% | 104.3% and 104.39% | 98.4% and 98.47% | 102.2% and 102.25% | 90.5% and 90.57% | 101.19% | 96.2% and 96.23% | 97.7% and 97.71% | 102.6% and 102.62% | Growth Percent (RPMI-8226): 105.4% and 105.45%; Growth Percent (OVCAR-5): 105.3% and 105.35%; Growth Percent (NCI-H226): 99.4% and 99.47%; Growth Percent (SW-620): 98.4% and 98.44%; Growth Percent (IGROV1): 103.6% and 103.69%; Growth Percent (HCC-2998): 99.3% and 99.38%; Growth Percent (COLO 205): 106.8% and 106.84%; Growth Percent (MOLT-4): 103.9% and 103.94%; Growth Percent (SF-268): 91.7%; Growth Percent (CAKI-1): 91.6% and 91.67%; Growth Percent (SN12C): 102.8% and 102.86%; Growth Percent (KM12): 94.8% and 94.85%; Growth Percent (U251): 89.3% and 89.34%; Growth Percent (SNB-19): 100.2%; Growth Percent (SK-MEL-2): 107.8%; Growth Percent (UO-31): 74.6% and 74.65%; Growth Percent (BT-549): 87.6%
2 | Cc1c(C(=O)NO)sc2ncnc(Nc3ccc(NC(=S)Nc4ccccc4)cc3)c12 [Compound 7d, 1–(4-(6-(hydroxycarbamoyl)-5-methylthieno[2,3-d]pyrimidin-4-ylamino)phenyl)-3-phenylthiourea] | 112.9% and 112.91% | 101.3% and 101.34% | 103.0% and 103.01% | 105.6% and 105.68% | 103.9% and 103.92% | 99.4% and 99.45% | 106.96% | 103.1% | 114.8% and 114.88% | 102.0% and 102.05% | 110.3% and 110.34% | 95.2% and 95.28% | 105.0% and 105.07% | 107.3% and 107.32% | 102.7% and 102.72% | 93.7% and 93.76% | 96.5% and 96.54% | 98.3% and 98.32% | 104.5% and 104.57% | 100.8% and 100.85% | Growth Percent (OVCAR-5): 102.8%; Growth Percent (NCI-H226): 103.8% and 103.88%; Growth Percent (SW-620): 104.8% and 104.86%; Growth Percent (IGROV1): 111.5% and 111.55%; Growth Percent (HCC-2998): 99.8% and 99.86%; Growth Percent (COLO 205): 112.9% and 112.97%; Growth Percent (MOLT-4): 111.3% and 111.35%; Growth Percent (SF-268): 98.1% and 98.17%; Growth Percent (CAKI-1): 96.5% and 96.56%; Growth Percent (SN12C): 100.8% and 100.86%; Growth Percent (KM12): 102.1% and 102.11%; Growth Percent (U251): 104.0% and 104.08%; Growth Percent (SNB-19): 96.4% and 96.45%; Growth Percent (SK-MEL-2): 104.1% and 104.16%; Growth Percent (UO-31): 85.0% and 85.06%; Growth Percent (BT-549): 106.3% and 106.33%
3 | Cc1c(C(=O)NO)sc2ncnc(Nc3ccc(F)c(Cl)c3)c12 [Compound 15d, 4–(3-chloro-4-fluorophenylamino)-N-hydroxy-5-methylthieno[2,3-d]pyrimidine-6-carboxamide] | 95.4% and 95.46% | 101.0% and 101.03% | 105.3% and 105.38% | 110.4% and 110.42% | 85.6% and 85.68% | 109.9% and 109.91% | 101.9% and 101.96% | 105.0% and 105.01% | 120.5% and 120.52% | 101.5% and 101.54% | 101.4% and 101.45% | 93.8% and 93.88% | 109.6% and 109.62% | 107.6% and 107.66% | 101.9% and 101.99% | 101.3% and 101.32% | 95.7% and 95.72% | 93.7% and 93.74% | 102.4% and 102.42% | 99.3% | Growth Percent (OVCAR-5): 101.3% and 101.35%; Growth Percent (NCI-H226): 103.2% and 103.24%; Growth Percent (SW-620): 108.2% and 108.22%; Growth Percent (IGROV1): 103.9% and 103.95%; Growth Percent (HCC-2998): 102.4% and 102.42%; Growth Percent (COLO 205): 112.3% and 112.34%; Growth Percent (MOLT-4): 110.0% and 110.03%; Growth Percent (SF-268): 96.5%; Growth Percent (CAKI-1): 90.4% and 90.42%; Growth Percent (SN12C): 100.1% and 100.14%; Growth Percent (KM12): 102.3% and 102.31%; Growth Percent (U251): 98.2%; Growth Percent (SNB-19): 91.8%; Growth Percent (SK-MEL-2): 100.9%; Growth Percent (UO-31): 77.0% and 77.07%; Growth Percent (BT-549): 114.0% and 114.08%
